The record followed here is patent publication US8372838B2, “Compounds as bradykinin B1 antagonists” (Boehringer Ingelheim International GmbH, priority 2010, dated 2013).

One data set deals with T1, cynomolgus BK1-receptor (Macaca fascicularis, UniProt Q3BCU0).
T1 construct: expressed in transfected cells; host or cells: CHO cells
T1 sequence (Q3BCU0 1-352): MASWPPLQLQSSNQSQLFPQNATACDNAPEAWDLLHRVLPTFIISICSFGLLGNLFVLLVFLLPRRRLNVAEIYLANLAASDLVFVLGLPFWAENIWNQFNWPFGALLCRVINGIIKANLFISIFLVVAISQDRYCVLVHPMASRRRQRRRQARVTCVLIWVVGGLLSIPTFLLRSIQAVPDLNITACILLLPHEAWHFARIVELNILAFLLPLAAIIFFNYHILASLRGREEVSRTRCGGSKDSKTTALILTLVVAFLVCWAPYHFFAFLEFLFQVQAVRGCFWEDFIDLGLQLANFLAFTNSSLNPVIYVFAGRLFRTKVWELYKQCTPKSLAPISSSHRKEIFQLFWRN
Put plainly: cynoBK1-receptor binding assay. As to the method: Description of the Method of Binding the CynoBK1-Receptor
CHO cells that express the cynomolgus BK1-receptor are cultivated in “HAM'S F-12 Medium”. The medium is removed from confluent cultures, the cells are washed with PBS buffer, scraped off or detached using Versene and isolated by centrifuging. Then the cells are homogenised in suspension, the homogenate is centrifuged and resuspended. After the protein content has been determined 200 μl of the homogenate (50 to 250 μg protein/assay) are incubated for 60-180 minutes at ambient temperature with 0.5 to 5.0 nM kallidine (DesArg10,Leu9), [3,4-Prolyl-3,43H(N)] and increasing concentrations of the test substance in a total volume of 250 μl. The incubation is stopped by rapid filtration through GF/B glass fibre filters that have been pre-treated with polyethyleneimine (0.3%). The radioactivity bound to the protein is measured with a TopCount NXT. The radioactivity bound in the presence of 1.0 μM kallidine (DesArg10) is defined as non-specific binding. The concentration binding curve may be analysed using computer-aided non-linear curve fitting to determine the corresponding Ki value for the test substance.
Test results of the cynoBK1-receptor binding assay: […]

A further data set relates to human hepatocytes. Put plainly: metabolic clearance in human hepatocytes. The data set is classed as in vitro ADME. The note with it: cryopreserved primary human hepatocytes, 5% human serum, 1 μM test compound, 6 h; well-stirred model, percentage of human hepatic blood flow. An excerpt:
The metabolic stability can be measured by determining the decomposition in human hepatocytes and using the rate of decomposition to calculate the clearance, which in turn is expressed as a percentage of the human hepatic blood flow (% Qh). […] Thus, in the interests of achieving a long duration of activity it is highly advantageous if the active substance has a high metabolic stability (low clearance).
Description of Method for Determining Metabolic Clearance in Human Hepatocytes
The metabolic breakdown of the test substance is determined in a hepatocyte suspension. Cryopreserved primary human hepatocytes are incubated in a suitable incubation medium (e.g. Dulbecco's modified eagle medium, DMEM) which contains 5% human serum. After 30 minutes' pre-incubation in the incubator (37° C., 10% carbon dioxide) 5 μL of the test compound (80 μM, prepared from a 2 mM stock solution in dimethylsulphoxide and diluted 1:25 with incubation medium) are added to 395 μL of hepatocyte suspension (cell density in the range from 0.25-1 million cells/mL, typically 1 million cells/mL; final concentration of the test compound 1 μM). The cells are incubated for 6 hours in an incubator with an orbital agitator. At times 0, 0.5, 1, 2, 4 and 6 h, 25 μL of the medium are removed in each case. The medium removed is mixed with an excess of acetonitrile and centrifuged for 5 minutes. The supernatant is removed, evaporated to dryness under nitrogen and taken up in a mixture of 25% methanol and 0.1% formic acid. The reduction in the concentration of the test substance in the incubation medium is determined by coupling liquid chromatography with electrospray mass spectrometry. The linear phase of the decrease in the concentration of the test substance in the medium is used for the calculation. The intrinsic clearance is calculated as follows: CL_INTRINSIC=dose/AUC=(C0/CD)/(AUD+clast/k)×1000/60. C0: initial concentration in the incubation [μM], CD: cell density of the vital cells [10e6cells/mL], AUD: area under the curve [μM×h], clast: concentration of the last data point [μM], k: increase in the regression lines for the reduction in the test substance [h−1]. The intrinsic in vitro clearance calculated is now converted into the intrinsic in vivo clearance: CL_INTRINSIC_INVIVO [ml/min/kg]=(CL_INTRINSIC [μL/min/10e6cells]×hepatocellularity [10e6 cells/g liver]×liver factor [g/kg body weight])/1000 and the estimated human clearance is calculated using the well-stirred model: CL [ml/min/kg]=CL_INTRINSIC_INVIVO [ml/min/kg]×hepatic blood flow [ml/min/kg]/(CL_INTRINSIC_INVIVO [ml/min/kg]+hepatic blood flow [ml/min/kg]). […]

Setting [1] is: CHO cell homogenate expressing cynomolgus BK1-receptor, radioligand kallidine (DesArg10,Leu9), [3,4-Prolyl-3,43H(N)].
The mark [2] stands for this setting: cynoBK1-receptor binding, repeated beside clearance in the metabolic stability table.

Consider `O=C(N[C@@]1(C(=O)NCc2ccc(Nc3ccc(F)cc3C(F)(F)F)cc2)CCOC1)c1cn[nH]c(=O)c1` [Example 3, (S)-6-oxo-1,6-dihydro-pyridazine-4-carboxylic acid-{3-[4-(4-fluoro-2-trifluoromethyl-phenylamino)-benzylcarbamoyl]-tetrahydrofuran-3-yl}-amide], for which the Ki at cynomolgus BK1-receptor (setting [1]) and on cynomolgus BK1-receptor (setting [2]) was 12 nM each time. The same molecule returned a Clearance in the data set with human hepatocytes of 7 % Qh.
For `O=C(NC1(C(=O)NCc2ccc(Nc3ccc(F)cc3C(F)(F)F)cn2)CC1)c1cn[nH]c(=O)c1` [Example 1, 6-oxo-5,6-dihydro-pyridazine-4-carboxylic acid-(1-{[5-(4-fluoro-2-trifluoromethyl-phenylamino)-pyridin-2-ylmethyl]-carbamoyl}-cyclopropyl)-amide], the Ki on cynomolgus BK1-receptor (setting [1]) and at cynomolgus BK1-receptor (setting [2]) was 3.5 nM throughout. In the data set with human hepatocytes, this molecule came in with a Clearance of 1 % Qh.
Consider `O=C(N[C@@]1(C(=O)NCc2ccc(Nc3ccc(Cl)cc3C(F)(F)F)cc2)CCOC1)c1cn[nH]c(=O)c1` [Example 4, (S)-6-oxo-1,6-dihydro-pyridazine-4-carboxylic acid-{3-[4-(4-chloro-2-trifluoromethyl-phenylamino)-benzylcarbamoyl]-tetrahydrofuran-3-yl}-amide], for which, on cynomolgus BK1-receptor (setting [1]), the affinity, expressed as Ki, was 27 nM.
On the same count and under the same terms, the value for `O=C(N[C@@]1(C(=O)NCc2ccc(Nc3ccc(Cl)cc3C(F)(F)F)cc2F)CCOC1)c1cn[nH]c(=O)c1` [Example 7, (S)-6-oxo-1,6-dihydro-pyridazine-4-carboxylic acid-{3-[4-(4-chloro-2-trifluoromethyl-phenylamino)-2-fluoro-benzylcarbamoyl]-tetrahydrofuran-3-yl}-amide] was 30 nM.
As for `O=C(N[C@@]1(C(=O)NCc2ccc(Nc3ccccc3C(F)(F)F)cc2)CCOC1)c1cn[nH]c(=O)c1` [Example 5, (S)-6-oxo-1,6-dihydro-pyridazine-4-carboxylic acid-{3-[4-(2-trifluoromethyl-phenylamino)-benzylcarbamoyl]-tetrahydrofuran-3-yl}-amide], the inhibition constant (Ki) on cynomolgus BK1-receptor (setting [1]) and on cynomolgus BK1-receptor (setting [2]) was 11 nM each time. The molecule further displayed a Clearance with human hepatocytes of 22 % Qh.
In turn, `O=C(N[C@@]1(C(=O)NCc2ccc(Nc3ccccc3C(F)(F)F)cc2F)CCOC1)c1cn[nH]c(=O)c1` [Example 9, (S)-6-oxo-1,6-dihydro-pyridazine-4-carboxylic acid {3-[2-fluoro-4-(2-trifluoromethyl-phenylamino)-benzylcarbamoyl]-tetrahydro-furan-3-yl}-amide] registered an inhibition constant (Ki) at cynomolgus BK1-receptor (setting [1]) of 6.6 nM.
Molecule `O=C(N[C@@]1(C(=O)NCc2ccc(Nc3ccc(Br)cc3C(F)(F)F)cc2)CCOC1)c1cn[nH]c(=O)c1` [Example 8, (S)-6-oxo-1,6-dihydro-pyridazine-4-carboxylic acid-{3-[4-(4-bromo-2-trifluoromethyl-phenylamino)-benzylcarbamoyl]-tetrahydrofuran-3-yl}-amide] displayed a Ki at cynomolgus BK1-receptor (setting [1]) of 37 nM.
Still for that read-out and setting: next, `O=C(NC1(C(=O)NCc2ccc(Nc3ccc(Cl)cc3C(F)(F)F)cn2)CC1)c1cn[nH]c(=O)c1` [Example 2, 6-oxo-1,6-dihydro-pyridazine-4-carboxylic acid-(1-{[5-(4-chloro-2-trifluoromethyl-phenylamino)-pyridin-2-ylmethyl]-carbamoyl}-cyclopropyl)-amide]: 5.1 nM.
`O=C(N[C@@]1(C(=O)NCc2ccc(Nc3ccc(F)cc3C(F)(F)F)cc2F)CCOC1)c1cn[nH]c(=O)c1` [Example 6, (S)-6-oxo-1,6-dihydro-pyridazine-4-carboxylic acid-{3-[2-fluoro-4-(4-fluoro-2-trifluoromethyl-phenylamino)-benzylcarbamoyl]-tetrahydrofuran-3-yl}-amide] gave a Ki at cynomolgus BK1-receptor (setting [1]) of 3.2 nM. The molecule further registered a Clearance in the data set on human hepatocytes of 6 % Qh.
